Experimental data as given in patent US10214527B2, “Triazolopyridine inhibitors of myeloperoxidase” (priority 2015, dated 2019).
Read-outs that look alike come from different tables or passages of the source.

Biological target: myeloperoxidase (MPO) (Homo sapiens (Human), UniProt P05164)
Test: MPO peroxidation assay (Amplex Red assay)
Assay type: biochemical
[1] = MPO peroxidation, potency range class, read-out: Amplex Red Assay IC50 value

myeloperoxidase (MPO), sequence (P05164 49-745): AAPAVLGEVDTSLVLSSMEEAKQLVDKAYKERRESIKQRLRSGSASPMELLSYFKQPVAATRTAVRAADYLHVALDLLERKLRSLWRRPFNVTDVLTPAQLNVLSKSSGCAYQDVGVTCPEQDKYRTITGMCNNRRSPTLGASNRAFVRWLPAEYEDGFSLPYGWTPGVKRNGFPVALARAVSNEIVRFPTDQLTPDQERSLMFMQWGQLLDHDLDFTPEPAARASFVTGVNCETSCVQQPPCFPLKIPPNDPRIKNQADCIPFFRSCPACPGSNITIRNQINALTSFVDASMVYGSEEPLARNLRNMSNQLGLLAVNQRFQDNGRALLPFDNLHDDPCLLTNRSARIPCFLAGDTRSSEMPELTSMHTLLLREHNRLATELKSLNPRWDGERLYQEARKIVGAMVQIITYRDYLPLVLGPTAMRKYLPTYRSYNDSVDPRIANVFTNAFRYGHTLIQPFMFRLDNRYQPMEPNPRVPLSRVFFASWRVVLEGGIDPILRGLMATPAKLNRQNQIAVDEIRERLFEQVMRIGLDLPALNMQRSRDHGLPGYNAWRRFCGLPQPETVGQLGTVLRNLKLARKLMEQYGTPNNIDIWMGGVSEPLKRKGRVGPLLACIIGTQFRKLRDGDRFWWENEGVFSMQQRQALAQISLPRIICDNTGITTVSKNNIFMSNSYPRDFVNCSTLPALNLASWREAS

Row | IC50 [1] [nM] | Compound | IC50 [nM]
1 | 101 to 999 | Nc1cc(Cc2ccc3c(c2)CCC3)c2nn[nH]c2n1 [Example 22, 7-((2,3-dihydro-1H-inden-5-yl)methyl)-3H-[1,2,3]triazolo [4,5-b]pyridin-5-amine] | –
2 | 1000 to 10000 | Nc1cc(Cc2ccc(OC(F)(F)F)cc2)c2nn[nH]c2n1 [Example 36, 7-(4-(trifluorometh-oxy)benzyl)-3H-[1,2,3]triazolo [4,5-b]pyridin-5-amine] | –
3 | 1 to 100 | Cc1cccc(Cc2cc(N)nc3[nH]nnc23)c1F [Example 9, 7-(2-fluoro-3-methylbenzyl)-3H-[1,2,3]triazolo [4,5-b]pyridin-5-amine] | –
4 | 1 to 100 | Nc1cc(Cc2cccc(F)c2)c2nn[nH]c2n1 [Example 24, 7-(3-fluorobenzyl)-3H-[1,2,3]triazolo [4,5-b]pyridin-5-amine] | –
5 | 101 to 999 | Nc1cc(Cc2ccc3c(c2)OCO3)c2nn[nH]c2n1 [Example 20, 7-(benzo[d][1,3]dioxol-5-ylmethyl)-3H-[1,2,3]triazolo [4,5-b]pyridin-5-amine] | –
6 | 1 to 100 | Nc1cc(Cc2cccc3c2ccn3Cc2cccc(-c3ccccc3)c2)c2nn[nH]c2n1 [Example 61, 7-((1-([1,1′-Biphenyl]-3-ylmethyl)-1H-indol-4-yl)methyl)-3H-[1,2,3]triazolo[4,5-b]pyridin-5-amine] | –
7 | 101 to 999 | Cc1cc(C)n(-c2cccc(Cc3cc(N)nc4[nH]nnc34)c2)n1 [Example 53, 7-(3-(3,5-dimethyl-1H-pyrazol-1-yl)benzyl)-3H-[1,2,3]triazolo [4,5-b] pyridin-5-amine] | –
8 | 1 to 100 | Nc1cc(Cc2c(F)ccc(Cl)c2F)c2nn[nH]c2n1 [Example 18, 7-(3-chloro-2,6-difluorobenzyl)-3H-[1,2,3]triazolo [4,5-b]pyridin-5-amine] | –
9 | 101 to 999 | Nc1cc(Cc2ccccc2CS(=O)(=O)c2ccccc2)c2nn[nH]c2n1 [Example 38, 7-(2-((phenylsulfon-yl)methyl)benzyl)-3H-[1,2,3]triazolo [4,5-b]pyridin-5-amine] | –
10 | 101 to 999 | Nc1cc(Cc2cccc(-n3cccn3)c2)c2nn[nH]c2n1 [Example 52, 7-(3-(1H-pyrazol-1-yl)benzyl)-3H-[1,2,3]triazolo [4,5-b]pyridin-5-amine] | –
11 | 1 to 100 | N#Cc1ccc(F)c(Cc2cc(N)nc3[nH]nnc23)c1 [Example 8, 3-((5-amino-3H-[1,2,3]triazolo [4,5-b]pyridin-7-yl)methyl)-4-fluorobenzo-nitrile] | –
12 | 101 to 999 | Cc1cccc(Cc2cc(N)nc3[nH]nnc23)n1 [Example 54, 7-((6-methylpyridin-2-yl)methyl)-3H-[1,2,3]triazolo [4,5-b]pyridin-5-amine] | –
13 | 101 to 999 | Cc1nc(-c2ccc(Cc3cc(N)nc4[nH]nnc34)cc2)no1 [Example 32, 7-(4-(5-methyl-1,2,4-oxadiazol-3-yl)benzyl)-3H-[1,2,3]triazolo [4,5-b] pyridin-5-amine] | –
14 | – | Nc1cc(Cc2cccc(-c3ccccc3)c2)c2nn[nH]c2n1 [Example 17, 7-(Biphenyl-3-ylmethyl)-3H-[1,2,3]triazolo[4,5-b]pyridin-5-amine] | 1 to 100
15 | – | COC(=O)c1cccc(Cc2cc(N)nc3[nH]nnc23)c1 [Example 7, Methyl 3-((5-amino-3H-[1,2,3]triazolo[4,5-b]pyridin-7-yl)methyl)benzoate] | 1 to 100
16 | – | Nc1cc(Cc2ccc3ccccc3c2)c2nn[nH]c2n1 [Example 6, 7-(naphthalen-2-ylmethyl)-3H-[1,2,3] triazolo[4,5-b]pyridin-5-amine] | 101 to 999
17 | 101 to 999 | Cn1ncc2cc(Cc3cc(N)nc4[nH]nnc34)ccc21 [Example 68, 7-((1-Methyl-1H-indazol-5-yl)methyl)-3H-[1,2,3]triazolo[4,5-b]pyridin-5-amine] | –

Row | IC50 [1] [nM] | Compound | IC50 [nM]
18 | 101 to 999 | Nc1cc(Cc2ccc(C(=O)c3ccccc3)cc2)c2nn[nH]c2n1 [Example 39, (4-((5-amino-3H-[1,2,3]triazolo [4,5-b]pyridin-7-yl)methyl)phenyl)(phenyl) methanone] | –
19 | – | Nc1cc(Cc2ccccc2F)c2nn[nH]c2n1 [Example 23, 7-(2-fluorobenzyl)-3H-[1,2,3]triazolo [4,5-b]pyridin-5-amine] | 1 to 100
20 | 101 to 999 | Nc1cc(Cc2cccc(C(=O)NCc3ccccc3)c2)c2nn[nH]c2n1 [Example 46, 3-((5-Amino-3H-[1,2,3]triazolo[4,5-b]pyridin-7-yl)methyl)-N-benzylbenzamide] | –
21 | 101 to 999 | COc1ccc(Cc2cc(N)nc3[nH]nnc23)cc1 [Example 4, 7-(4-methoxybenzyl)-3H-[1,2,3] triazolo[4,5-b]pyridin-5-amine] | –
22 | 101 to 999 | Cc1ccc(-c2cccc(Cc3cc(N)nc4[nH]nnc34)c2)cc1 [Example 15, 7-((4′-methyl-[1,1′-biphenyl]-3-yl)methyl)-3H-[1,2,3]triazolo [4,5-b] pyridin-5-amine] | –
23 | 101 to 999 | CCn1ccc2c(Cc3cc(N)nc4[nH]nnc34)cccc21 [Example 60, 7-((1-Ethyl-1H-indol-4-yl)methyl)-3H-[1,2,3]triazolo[4,5-b]pyridin-5-amine] | –
24 | 101 to 999 | CC(C)(C)c1ccc(Cc2cc(N)nc3[nH]nnc23)cc1 [Example 35] | –
25 | 101 to 999 | COc1ccc(-c2cccc(Cc3cc(N)nc4[nH]nnc34)n2)cc1 [Example 55, 7-((6-(4-methoxyphenyl)pyridin-2-yl)methyl)-3H-[1,2,3]triazolo [4,5-b] pyridin-5-amine] | –
26 | 1 to 100 | Nc1cc(Cc2cccc3c2ccn3Cc2ccccc2)c2nn[nH]c2n1 [Example 59, 7-((1-Benzyl-1H-indol-4-yl)methyl)-3H-[1,2,3]triazolo[4,5-b]pyridin-5-amine] | –
27 | 101 to 999 | Cc1ccc(Cc2cc(N)nc3[nH]nnc23)cc1 [Example 3, 7-(4-methylbenzyl)-3H-[1,2,3]triazolo [4,5-b]pyridin-5-amine] | –
28 | 101 to 999 | Nc1cc(Cc2cccc(OCc3ccccc3)c2)c2nn[nH]c2n1 [Example 49, 7-(3-(Benzyloxy)benzyl)-3H-[1,2,3]triazolo[4,5-b]pyridin-5-amine] | –
29 | 101 to 999 | Cn1ncc2ccc(Cc3cc(N)nc4[nH]nnc34)cc21 [Example 67, 7-((1-Methyl-1H-indazol-6-yl)methyl)-3H-[1,2,3]triazolo[4,5-b]pyridin-5-amine] | –
30 | 1 to 100 | Nc1cc(Cc2cccc(Cl)c2F)c2nn[nH]c2n1 [Example 45, 7-(3-chloro-2-fluorobenzyl)-3H-[1,2,3] triazolo[4,5-b]pyridin-5-amine] | –
31 | 101 to 999 | Nc1cc(Cc2ccc3cc(F)ccc3c2)c2nn[nH]c2n1 [Example 19, 7-((6-fluoronaphthalen-2-yl)methyl)-3H-[1,2,3]triazolo [4,5-b]pyridin-5-amine] | –
32 | 101 to 999 | CC(C)(C)OC(=O)N1CCCc2cc(Cc3cc(N)nc4[nH]nnc34)ccc21 [Example 12, tert-butyl 6-((5-amino-3H-[1,2,3]triazolo[4,5-b]pyridin-7-yl)methyl)-3,4-dihydroquinoline-1(2H)-carboxylate] | –
33 | – | Nc1cc(Cc2cccc(Cl)c2)c2nn[nH]c2n1 [Example 2, 7-(3-chlorobenzyl)-3H-[1,2,3]triazolo [4,5-b]pyridin-5-amine] | 1 to 100
34 | 101 to 999 | Nc1cc(Cc2cccc(Oc3ccc(F)cc3)c2)c2nn[nH]c2n1 [Example 27, 7-(3-(4-fluorophenoxy)benzyl)-3H-[1,2,3]triazolo [4,5-b]pyridin-5-amine] | –
